# Laboratory results: patent US20150352108A1, “AMINO-PYRIMIDINE COMPOUNDS AS INHIBITORS OF TBK1 AND/OR IKK EPSILON” (Alzheimer's Institute of America, priority 2009, published 2015)
# Read-outs that look alike come from different tables or passages of the source.
# How the values were obtained:
# IKKε = target: T1, IKKε (Homo sapiens, UniProt Q14164); test: In-vitro IKKε kinase assay ([γ33]ATP filter-plate); type: biochemical
# T1 construct: His-tag; made in house; host or cells: Sf9 insect cells
# T1 sequence (Q14164 1-716): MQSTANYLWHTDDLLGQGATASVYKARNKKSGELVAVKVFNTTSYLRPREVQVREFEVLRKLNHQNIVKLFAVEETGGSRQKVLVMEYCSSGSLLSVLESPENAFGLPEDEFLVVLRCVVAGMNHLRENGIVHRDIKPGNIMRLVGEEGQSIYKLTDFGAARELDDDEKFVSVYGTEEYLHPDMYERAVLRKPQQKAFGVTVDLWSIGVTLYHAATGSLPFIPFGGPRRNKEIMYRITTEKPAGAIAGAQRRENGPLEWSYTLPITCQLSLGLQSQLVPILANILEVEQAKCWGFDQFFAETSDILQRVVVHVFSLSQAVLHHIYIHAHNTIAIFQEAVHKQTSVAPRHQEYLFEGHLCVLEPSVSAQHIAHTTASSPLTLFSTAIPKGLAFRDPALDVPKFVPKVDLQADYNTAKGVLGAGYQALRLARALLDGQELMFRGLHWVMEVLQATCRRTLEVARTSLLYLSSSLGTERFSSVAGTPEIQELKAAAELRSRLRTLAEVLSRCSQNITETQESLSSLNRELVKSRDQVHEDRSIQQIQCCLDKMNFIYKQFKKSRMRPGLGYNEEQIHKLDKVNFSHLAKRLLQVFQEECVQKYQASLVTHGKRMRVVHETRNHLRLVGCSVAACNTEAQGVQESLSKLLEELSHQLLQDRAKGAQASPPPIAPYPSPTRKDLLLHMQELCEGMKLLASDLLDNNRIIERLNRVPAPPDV
# Summary of the method: (§1)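 His-tagged Sf9-expressed kinases at 0.1 or 0.02 μg/ml (TBK1) and 0.1 or 0.015 μg/ml (IKKε) for normal and sensitized formats, with myelin basic protein or casein substrate. ATP was at 2×Km (60 μM TBK1, 32 μM IKKε) plus 0.3 μCi [γ33]ATP. Reactions ran 30-45 min, were captured on P-81 filters, and counts were normalized to DMSO.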
# TBK1 = target: T2, TBK1 (Homo sapiens, UniProt Q9UHD2); test: In-vitro TBK1 kinase assay ([γ33]ATP filter-plate); type: biochemical
# T2 construct: His-tag; made in house; host or cells: Sf9 insect cells
# T2 sequence (Q9UHD2 1-729): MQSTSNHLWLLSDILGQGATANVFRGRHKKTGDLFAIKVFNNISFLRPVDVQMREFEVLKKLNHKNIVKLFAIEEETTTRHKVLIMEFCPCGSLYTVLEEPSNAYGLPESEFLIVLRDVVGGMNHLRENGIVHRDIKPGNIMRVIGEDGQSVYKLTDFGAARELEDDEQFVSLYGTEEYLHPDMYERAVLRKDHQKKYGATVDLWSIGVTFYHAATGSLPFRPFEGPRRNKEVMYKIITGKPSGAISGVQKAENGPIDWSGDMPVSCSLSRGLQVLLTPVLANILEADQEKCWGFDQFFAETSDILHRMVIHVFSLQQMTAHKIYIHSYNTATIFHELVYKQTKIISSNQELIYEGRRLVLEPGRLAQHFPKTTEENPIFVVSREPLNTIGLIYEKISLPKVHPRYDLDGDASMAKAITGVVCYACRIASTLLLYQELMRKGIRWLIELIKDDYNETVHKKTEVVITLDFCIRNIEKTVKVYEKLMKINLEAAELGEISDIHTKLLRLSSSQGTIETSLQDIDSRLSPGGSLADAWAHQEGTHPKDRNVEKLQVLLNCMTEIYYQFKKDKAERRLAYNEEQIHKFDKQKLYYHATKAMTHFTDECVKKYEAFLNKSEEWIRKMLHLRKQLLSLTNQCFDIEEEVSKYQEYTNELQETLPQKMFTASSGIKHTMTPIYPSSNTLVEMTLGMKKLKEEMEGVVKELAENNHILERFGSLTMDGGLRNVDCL
# Summary of the method: as §1
# [1] = text bins, read-out: IC50 for inhibition of the kinase activity of IKKε
# [2] = text bins, read-out: IC50 for inhibition of the kinase activity of TBK1
IC50 (IKKε; [1]),IC50 (TBK1; [2]),"IC50 (IKKε; Table 3, read-out: IKKε IC50)","IC50 (TBK1; Table 3, read-out: TBK1 IC50)",SMILES
< 5 nM,10 to 100 nM,–,–,N#Cc1cccc(-c2ccnc(Nc3cccc(S(N)(=O)=O)c3)n2)c1 [compound 373]
< 5 nM,< 10 nM,0.8 nM,0.4 nM,"CC(C)COc1ccc(-c2ccnc(Nc3cccc(CS(=O)(=O)NCCO)c3)n2)cc1C#N [compound 534, 1-[3-({4-[3-Cyano-4-(2-methylpropoxy)phenyl]pyrimidin-2-yl}amino)phenyl]-N-(2-hydroxyethyl) methanesulfonamide]"
< 5 nM,< 10 nM,1.4 nM,0.3 nM,"N#Cc1cc(-c2ccnc(Nc3ccc(CNC(=O)c4cnc(N)s4)cc3)n2)ccc1OC1CCOCC1 [compound 490, 2-amino-N-[4-({4-[3-cyano-4-(tetrahydro-2H-pyran-4-yloxy)phenyl]pyrimidin-2-yl}amino)benzyl]-1,3-thiazole-5-carboxamide]"
5 to 50 nM,10 to 100 nM,–,–,"N#Cc1cc(-c2ccnc(Nc3ccc(N4CCOCC4)cc3)n2)ccc1NS(=O)(=O)CC(F)(F)F [Example 243, N-[2-cyano-4-(2-{[4-(morpholin-4-yl)phenyl]amino}pyrimidin-4-yl)phenyl]-2,2,2-trifluoroethane-sulfonamide]"
50 to 500 nM,100 to 500 nM,–,–,"COc1cc(Nc2nccc(-c3cccc(C#N)c3)n2)cc(OC)c1 [compound 347, 3-{2-[(3,5-Dimethoxyphenyl)amino]pyrimidin-4-yl}benzonitrile]"
5 to 50 nM,< 10 nM,–,–,"CC(C)C(=O)Nc1ccc(-c2ccnc(Nc3cccc(CCN4CCOCC4)c3)n2)cc1C#N [compound 466, N-{2-cyano-4-[2-({3-[2-(morpholin-4-yl)ethyl]phenyl}amino)pyrimidin-4-yl]phenyl}-2-methylpropanamide]"
50 to 500 nM,100 to 500 nM,–,–,"N#Cc1cc(-c2ccnc(Nc3ccc(N4CCOCC4)cc3)n2)ccc1OC1CCN(C(=O)C2(N)CC2)C1 (stereo not shown) [Example 189, 2-({1-[(1-aminocyclopropyl)carbonyl]pyrrolidin-3-yl}oxy)-5-(2-{[4-(morpholin-4-yl)phenyl]amino}pyrimidin-4-yl)benzonitrile]"
5 to 50 nM,10 to 100 nM,–,–,"COc1cc(NC(=O)N2CCCC(O)C2)cc(Nc2nccc(-c3ccc(OC)c(C#N)c3)n2)c1 (stereo not shown) [compound 353, N-(3-{[4-(3-Cyano-4-methoxyphenyl)pyrimidin-2-yl]amino}-5-methoxyphenyl)-3-hydroxypiperidine-1-carboxamide]"
< 5 nM,< 10 nM,–,–,"CS(=O)(=O)N1CCC(COc2ccc(-c3ccnc(Nc4ccc(N5CCOCC5)cc4)n3)cc2C#N)CC1 [Example 76, 2-{[1-(methylsulfonyl)piperidin-4-yl]methoxy}-5-(2-{[4-(morpholin-4-yl)phenyl]amino}pyrimidin-4-yl)benzonitrile]"
5 to 50 nM,10 to 100 nM,–,–,"COc1cc(NC(=O)NC[C@H](C)O)cc(Nc2nccc(-c3ccc(OC)c(C#N)c3)n2)c1 [compound 359, 1-(3-{[4-(3-Cyano-4-methoxyphenyl)pyrimidin-2-yl]amino}-5-methoxyphenyl)-3-[(2S)-2-hydroxypropyl]urea]"
< 5 nM,< 10 nM,–,–,"COCCNC(=O)c1ccc(Nc2nccc(-c3ccc(NC(=O)C4CC4)c(C#N)c3)n2)cc1OC [compound 558, 4-[(4-{3-Cyano-4-[(cyclopropylcarbonyl)amino]phenyl}pyrimidin-2-yl)amino]-2-methoxy-N-(2-methoxyethyl) benzamide]"
< 5 nM,10 to 100 nM,–,–,"CC(C)(O)COc1ccc(-c2ccnc(Nc3ccc(N4CCOCC4)cc3)n2)cc1C#N [Example 231, 2-(2-Hydroxy-2-methylpropoxy)-5-(2-{[4-(morpholin-4-yl)phenyl]amino}pyrimidin-4-yl)benzonitrile]"
5 to 50 nM,10 to 100 nM,–,–,"COc1ccc(-c2ccnc(Nc3cccc(OCCN4CCOCC4)c3)n2)cc1C#N [compound 314, 2-Methoxy-5-[2-({3-[2-(morpholin-4-yl)ethoxy]phenyl}amino)pyrimidin-4-yl]benzonitrile]"
5 to 50 nM,10 to 100 nM,–,–,"N#Cc1cc(-c2ccnc(Nc3cccc(CNCCN4CCOCC4)c3)n2)ccc1OC1CCOCC1 [compound 569, 5-(2-{[3-({[2-(Morpholin-4-yl)ethyl]amino}methyl)phenyl]amino}pyrimidin-4-yl)-2-(tetrahydro-2H-pyran-4-yloxy)benzonitrile]"
< 5 nM,< 10 nM,–,–,"CNc1ccc(-c2ccnc(Nc3ccc(OC)c(OC)c3)n2)cc1C#N [Example 107, 5-{2-[(3,4-Dimethoxyphenyl)amino]pyrimidin-4-yl}-2-(methylamino) benzonitrile]"
5 to 50 nM,10 to 100 nM,–,–,"COc1ccc(-c2ccnc(Nc3ccc(N4CCNC(=O)C4)cc3)n2)cc1C#N [Example 71, 2-Methoxy-5-(2-{[4-(3-oxopiperazin-1-yl)phenyl]amino}pyrimidin-4-yl)benzonitrile]"
< 5 nM,< 10 nM,–,–,"COc1ccc(-c2ccnc(Nc3ccc(N(C)CC(=O)N(C)C)c(OC)c3)n2)cc1C#N [Example 68, N~2~-(4-{[4-(3-Cyano-4-methoxyphenyl)pyrimidin-2-yl]amino}-2-methoxyphenyl)-N,N,N~2~- trimethylglycinamide]"
5 to 50 nM,10 to 100 nM,–,–,"N#Cc1cc(-c2ccnc(Nc3ccc(N4CCOCC4)cc3)n2)ccc1OCCCN [compound 447, 2-(3-Aminopropoxy)-5-(2-{[4-(morpholin-4-yl)phenyl]amino}pyrimidin-4-yl)benzonitrile]"
< 5 nM,< 10 nM,–,–,"CC(C)Oc1ccc(-c2ccnc(Nc3ccc(N4CCOCC4)cc3)n2)cc1C#N [Example 191, 5-(2-{[4-(Morpholin-4-yl)phenyl]amino}pyrimidin-4-yl)-2-(propan-2-yloxy)benzonitrile]"
< 5 nM,< 10 nM,–,–,"COc1cc(Nc2nccc(-c3ccc(OC4CCN(C(=O)[C@H](C)O)CC4)c(C#N)c3)n2)ccc1C(=O)NCCN(C)C [Example 287, 4-({4-[3-cyano-4-({1-[(2S)-2-hydroxypropanoyl]piperidin-4-yl}oxy)phenyl]pyrimidin-2-yl}amino)-N-[2-(dimethylamino)ethyl]-2-methoxybenzamide]"
5 to 50 nM,10 to 100 nM,–,–,"N#Cc1cc(-c2ccnc(Nc3ccc(N4CCOCC4)cc3)n2)ccc1NC(=O)C1CCCCC1 [Example 54, N-[2-cyano-4-(2-{[4-(morpholin-4-yl)phenyl]amino}pyrimidin-4-yl)phenyl] cyclohexane-carboxamide]"
5 to 50 nM,10 to 100 nM,–,–,"CN1CCN(c2ccc(Nc3nccc(-c4ccc(OC5CCNC5)c(C#N)c4)n3)cc2)CC1 (stereo not shown) [Example 90, 5-(2-{[4-(4-methylpiperazin-1-yl)phenyl]amino}pyrimidin-4-yl)-2-(pyrrolidin-3-yloxy)benzonitrile]"
50 to 500 nM,10 to 100 nM,–,–,"COc1ccc(-c2ccnc(Nc3ccc(CN(C)C)cc3)n2)cc1C#N [Example 45, 5-[2-({4-[(Dimethylamino)methyl]phenyl}amino)pyrimidin-4-yl]-2-methoxybenzonitrile]"

SMILES,IC50 (IKKε; [1]),IC50 (TBK1; [2]),"IC50 (IKKε; Table 3, read-out: IKKε IC50)","IC50 (TBK1; Table 3, read-out: TBK1 IC50)"
"CCN(CC)CCN(CC)C(=O)Cc1ccc(Nc2nccc(-c3ccc(NC(=O)C(C)C)c(C#N)c3)n2)cc1 [compound 425, N-[2-cyano-4-(2-{[4-(2-{[2-(diethylamino)ethyl] (ethyl)amino}-2-oxoethyl)phenyl]amino}pyrimidin-4-yl)phenyl]-2-methylpropanamide]",5 to 50 nM,< 10 nM,–,–
